The results in this text go back to US12630498B2 (Genzyme Corporation, priority 2019, dated 2026).

Assay [1] concerns the target T1, human Cystic Fibrosis Transmembrane Conductance Regulator (CFTR) harboring the ΔF508 mutation (Homo sapiens, UniProt P13569, DEL508-508).
T1 construct: expressed in transfected cells; host or cells: H441 carcinoma line (G418-selected)
The assay is described as follows: H441 cell ΔF508-CFTR-HRP cell surface assay (Emax and EC50). Type of assay: cell-based. To be noted: for Emax: NCI-H441, NA = Not active. Summed up: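 H441 and 41o- bronchial epithelial cells expressing ΔF508-CFTR with an extracellular-loop-4 HRP tag were treated with a 15-point compound series (24.5–0.001 μM) for two nights, H441 at 27° C, 41o- at 37° C with 0.0005 mg/ml doxycycline. Surface HRP luminescence read; % of maximum VX809 signal and EC50 derived.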

Assay [2] concerns the target T2, CFTR-mediated transepithelial chloride transport in primary human bronchial epithelial cells from a ΔF508 homozygous CF donor (Homo sapiens, UniProt P13569, DEL508-508).
T2 construct: Primary human bronchial epithelial cells from a ΔF508 homozygous CF donor; host or cells: primary CF-HBE cells, ΔF508 homozygous donor
The assay is described as follows: TECC24 recording of CFTR-mediated transepithelial chloride transport in CF-HBE cells (AUC fold over DMSO). The conditions noted are these: test agent 10 μM, 48 hours incubation, AUC of forskolin-stimulated IEQ relative to DMSO. Type of assay: cell-based. A digest of the protocol:
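Equivalent Cl⁻ current was derived from transepithelial voltage and resistance, and its AUC from forskolin (10 μM) to CFTRinh-172 (20 μM) was divided by the DMSO AUC. Benzamil 10 μM blocked ENaC. Cells were ΔF508-homozygous primary bronchial epithelia pretreated 48 h at 36.5 °C in IL-13 medium.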

Structures are written as SMILES.

T2 sequence (P13569 with tags, fused parts or gaps DEL508-508): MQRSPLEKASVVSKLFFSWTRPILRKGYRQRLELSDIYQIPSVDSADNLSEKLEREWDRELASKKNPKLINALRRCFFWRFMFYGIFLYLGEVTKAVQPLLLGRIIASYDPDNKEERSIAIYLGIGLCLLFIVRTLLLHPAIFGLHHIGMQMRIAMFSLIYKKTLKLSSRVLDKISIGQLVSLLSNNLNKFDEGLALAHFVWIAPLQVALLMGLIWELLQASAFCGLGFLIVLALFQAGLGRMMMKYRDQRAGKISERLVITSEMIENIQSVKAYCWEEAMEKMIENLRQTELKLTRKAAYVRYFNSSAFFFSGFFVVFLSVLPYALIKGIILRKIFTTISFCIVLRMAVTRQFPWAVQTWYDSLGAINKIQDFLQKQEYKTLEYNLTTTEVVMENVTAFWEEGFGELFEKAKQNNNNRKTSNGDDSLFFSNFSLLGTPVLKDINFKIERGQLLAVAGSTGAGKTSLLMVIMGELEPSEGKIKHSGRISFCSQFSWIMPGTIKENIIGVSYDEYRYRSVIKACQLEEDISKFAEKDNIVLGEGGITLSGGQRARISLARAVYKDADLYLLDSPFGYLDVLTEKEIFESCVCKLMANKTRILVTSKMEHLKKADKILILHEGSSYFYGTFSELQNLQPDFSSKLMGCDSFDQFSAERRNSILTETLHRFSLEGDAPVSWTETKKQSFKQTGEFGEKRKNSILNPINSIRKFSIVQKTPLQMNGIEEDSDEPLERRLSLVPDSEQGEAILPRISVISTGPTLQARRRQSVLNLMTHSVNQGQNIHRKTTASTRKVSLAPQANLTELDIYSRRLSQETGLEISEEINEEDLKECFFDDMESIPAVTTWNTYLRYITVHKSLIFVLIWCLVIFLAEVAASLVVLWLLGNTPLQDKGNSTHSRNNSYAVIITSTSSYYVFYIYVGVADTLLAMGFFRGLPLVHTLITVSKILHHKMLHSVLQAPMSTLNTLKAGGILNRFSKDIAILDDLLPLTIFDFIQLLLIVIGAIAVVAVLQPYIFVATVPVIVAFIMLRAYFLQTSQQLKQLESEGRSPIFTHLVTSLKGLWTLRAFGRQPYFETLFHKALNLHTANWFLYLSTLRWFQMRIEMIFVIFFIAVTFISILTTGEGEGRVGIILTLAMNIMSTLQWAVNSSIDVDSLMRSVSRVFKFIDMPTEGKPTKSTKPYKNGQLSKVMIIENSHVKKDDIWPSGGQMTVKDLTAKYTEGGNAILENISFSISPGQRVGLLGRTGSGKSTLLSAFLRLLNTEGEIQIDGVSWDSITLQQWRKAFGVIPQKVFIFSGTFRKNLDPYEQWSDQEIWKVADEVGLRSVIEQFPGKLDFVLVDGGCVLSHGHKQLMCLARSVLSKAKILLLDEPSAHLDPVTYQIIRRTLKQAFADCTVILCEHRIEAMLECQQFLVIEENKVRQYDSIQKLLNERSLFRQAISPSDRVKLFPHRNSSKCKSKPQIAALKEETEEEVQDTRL
T1 sequence (P13569 with tags, fused parts or gaps DEL508-508): as above

What is called EC50 is the concentration that produces a half-maximal response. A high value points to a need for much substance. One may read the Emax as the size of the effect at its maximum, as opposed to the concentration needed. For the molecule `COc1ccc2ccc(C(=O)N[C@H](C(=O)O)C(C)(C)C)c(OCc3ccc(OC(F)(F)F)cc3)c2c1` [Example 310, (S)-2-(7-methoxy-1-((4-(trifluoromethoxy)benzyl)oxy)-2-naphthamido)-3,3-dimethylbutanoic Acid], in assay [1], a half-maximal effect (EC50) was put at 0.6 µM and the Emax is 299%. Moreover, the “TECC24 AUC fold over DMSO @10 μM” value in assay [2] is “A (“A” refers to AUC @10 uM >6)”.
For `CCC(C)(C)[C@H](NC(=O)c1ccc2ccc(OC)cc2c1OCc1ccc(OC(F)(F)F)cc1)C(=O)O` [Example 311, (S)-2-(7-methoxy-1-((4-(trifluoromethoxy)benzyl)oxy)-2-naphthamido)-3,3-dimethylpentanoic Acid], in that order: 0.5 µM, 345% and “A (“A” refers to AUC @10 uM >6)”.
For `CCC(C)(C)[C@@H](NC(=O)c1ccc2ccc(C)cc2c1OCc1ccc(OC(F)(F)F)cc1)C(=O)O` [Example 312, (R)-3,3-dimethyl-2-(7-methyl-1-((4-(trifluoromethoxy)benzyl)oxy)-2-naphthamido)pentanoic Acid], in that order: 2.2 µM, 127% and “B (“B” refers to AUC @10 uM between 4-6)”.
For `CCC1([C@H](NC(=O)c2ccc3ccc(F)cc3c2OCc2ccc(OC(F)(F)F)cc2)C(=O)O)CCCC1` [Example 313, (S)-2-(1-ethylcyclopentyl)-2-(7-fluoro-1-((4-(trifluoromethoxy)benzyl)oxy)-2-naphthamido)acetic Acid], in that order: 0.3 µM, 152% and “A (“A” refers to AUC @10 uM >6)”.
In assay [1], `CCC1([C@H](NC(=O)c2ccc3ccc(F)cc3c2OCc2ccc(C(F)(F)F)cc2)C(=O)O)CCCC1` [Example 314, (S)-2-(1-ethylcyclopentyl)-2-(7-fluoro-1-((4-(trifluoromethyl)benzyl)oxy)-2-naphthamido)acetic Acid] showed a concentration giving a half-maximal response (EC50) of 0.4 µM and a maximal effect (Emax) of 233%. The “TECC24 AUC fold over DMSO @10 μM” value in assay [2] is “A (“A” refers to AUC @10 uM >6)”.
